Assay results as given in patent US20100050299A1, “POST-HARVEST TREATMENT OF FRUITS WITH AN ANTIFUNGAL COMPOSITION” (priority 2006, published 2010).

Columns and labels:
[1] = system: Colletotridcum musae CBS19231; experiment: Treatment of bananas, Neocryl and xanthan instead of Bond and Zipper (Example 5); format: in vivo; settings: after 15 days; for wounds showing mould growth: 12 wounds; for Number of wounds showing mould growth/Total number of wounds: Neocryl 21.3 g/l and xanthan 1.0 g/l, 12 wounds (6 bananas with 2 wounds per banana)
Protocol: (§1) In this experiment organic bananas, Sabrosa® from the Dominican Republic, were used. The bananas were obtained from a local retailer in The Netherlands. The bananas were treated with spores of the phytopathogenic mould Colletotridcum musae CBS19231. The mould spores were obtained using well-known methods. The bananas were injured according to the method described by de Lapere de Bellaire and Dubois (1987). Bananas were wounded two times using a cork borer followed by contamination with approximately 2.5×10^4 mould spores of C. musae CBS19231 per wound. After incubation for 4 hours at room temperature, the bananas were dipped for one minute in one of the following compositions: a) no treatment (control 1), b) dipped in water (control 2), c) dipped in 1000 ppm natamycin, d) dipped in 240 mM of potassium phosphite, e) dipped in 1000 ppm of natamycin+240 mM of potassium phosphite. The experiment was executed in triplo; the natamycin and potassium phosphite solution were prepared using well-known methods. All compositions contained 0.1% (v/v) of the sticking agent Bond® (Loveland Industries Ltd.) and 0.14% (v/v) of the surfactant Zipper® (Asepta BV, The Netherlands). After this treatment the bananas were incubated in closed boxes at 21° C. at elevated humidity. Each day the bananas were judges visually on mould development.
The experiment described herein was executed as described in Example 1. However, in this experiment the sticking agent Bond® and the surfactant Zipper® were not used; instead Neocryl® (DSM) and xanthan were applied in a concentration of respectively 21.3 g/l and 1.0 g/l. In this experiment 12 wounds were made instead of 6 (2 wounds per banana; 6 bananas wounded).

[2] = system: moulds on bananas; settings: in vivo; cited from earlier work
[3] = system: Colletotridcum musae CBS19231; experiment: Treatment of bananas with wounds made with a knife at the stalk (Example 2); format: in vivo; settings: for wounds/bananas with mould growth: after 15 days of incubation, 3 bananas, wound at the stalk; for Number of wounds showing mould growth/Total number of wounds: after 15 days, 3 wounds (3 bananas with 1 wound made at the stalk per banana)
Protocol: as §1
The experiment described in this example was done identically compared to the experiment described in Example 1, with the proviso that the wounds were made with a knife at the stalk of the bananas.

[4] = system: Colletotridcum musae CBS19231; experiment: Treatment of freshly harvested banana clusters (Example 3); format: in vivo; settings: for bananas of the clusters on which moulds were observed: after 15 days of incubation, 12 bananas; for Number of bananas showing mould growth/Total number of bananas: after 15 days, freshly harvested, 12 bananas (3 clusters with 4 bananas per cluster)
Protocol: as §1
(§2) In this experiment freshly harvested bananas were used. A few days after harvesting and the de-latexing treatment to remove latex which is leaking from the wounds using well-known methods, the bananas were infected with mould spores and treated as described in Example 1. For each composition, 3 clusters comprising 4 bananas per cluster were used (experiment done in triplo).

[5] = system: Colletotridcum musae CBS19231; experiment: Treatment of bananas wounded with a cork borer and contaminated with mould spores, then dipped (Example 1); format: in vivo; settings: for Number of wounds showing mould growth/Total number of wounds: after 15 days at 21° C., dipped one minute, 1000 ppm natamycin, 240 mM potassium phosphite, 6 wounds (3 bananas with 2 wounds per banana); for wounds showing mould growth: after 15 days, out of 6 wounds
Protocol: as §1

[6] = system: Colletotridcum musae CBS19231; experiment: Treatment of freshly harvested banana clusters, new wounds made with a knife at the stalk (Example 4); format: in vivo; settings: for mould growth on banana clusters: after 15 days of incubation, 3 banana clusters; for Number of clusters showing severe mould growth/Total number of clusters: after 15 days, freshly harvested, 3 clusters, 2 wounds per cluster at the stalk
Protocol: as §1, §2
(§3) The experiment described in this example was done identically compared to the experiment described in Example 3, with the proviso that bananas were harvested and thereafter new wounds were made with a knife at the stalk of the banana clusters (2 wounds were made per cluster).

[7] = system: Colletotridcum musae CBS19231; experiment: Treatment of banana clusters wounded at the hand, Neocryl and xanthan instead of Bond and Zipper (Example 6); format: in vivo; settings: for wounds with mould growth: after 15 days of incubation, 6 wounds; for Number of wounds showing mould growth/Total number of wounds: after 15 days, Neocryl 21.3 g/l and xanthan 1.0 g/l, 6 wounds (3 clusters, 2 wounds per cluster at the hand)
Protocol: as §1, §2, §3
The experiment described herein was executed as described in Example 4, with the proviso that the sticking agent Bond® and the surfactant Zipper® were replaced by Neocryl® (DSM) and xanthan in a concentration of respectively 21.3 g/l and 1.0 g/l. Three clusters comprising 4 bananas each were wounded two times at the hand of the cluster resulting in a total number of wounds of 6.

Molecule | wounds showing mould growth [1] [%] | Number of wounds showing mould growth/Total number of wounds [1] | control of moulds on bananas [2] | spectrum of action [2] | wounds/bananas with mould growth [3] | Number of wounds showing mould growth/Total number of wounds [3] | bananas of the clusters on which moulds were observed [4] | Number of bananas showing mould growth/Total number of bananas [4] | Number of wounds showing mould growth/Total number of wounds [5] | wounds showing mould growth [5] | mould growth on banana clusters [6] | Number of clusters showing severe mould growth/Total number of clusters [6] | wounds with mould growth [7] | Number of wounds showing mould growth/Total number of wounds [7]
C[C@@H]1C/C=C/C=C/C=C/C=C/[C@H](O[C@@H]2O[C@H](C)[C@@H](O)[C@H](N)[C@@H]2O)C[C@@H]2O[C@](O)(C[C@@H](O)C[C@H]3O[C@@H]3/C=C/C(=O)O1)C[C@H](O)[C@H]2C(=O)O [Composition c, natamycin] | 50 | 6/12 | not sufficiently active | broad spectrum action | 2 of 3 | 2/3 | all bananas | 12/12 | 6/6 | 6 | in all of the natamycin treated banana clusters | 3/3 | all wounds | 6/6
potassium phosphite [Composition d] | 25 | 3/12 | – | – | all wounds | 3/3 | all bananas | 12/12 | 5/6 | 5 out of 6 | 2 of the 3 | 2/3 | all wounds | 6/6
